Data as given in article PMC6956158, “In Vitro and In Vivo Assessment of Metabolic Drug Interaction Potential of Dutasteride with Ketoconazole” (Pharmaceutics, 2019).

Columns and labels:
[1] = Unbound fraction by rapid equilibrium dialysis, HLM; type: in vitro ADME, human
Experimental: (§1) To investigate the metabolic interaction potential between DUT and KET, the disappearance of DUT (5 μM) in RLM and HLM was determined under the absence and presence of KET at various concentrations ranging from 1 to 5000 nM. A microsomal reaction mixture was prepared as follows (total volume: 0.2 mL): 1 mM NADPH, 10 mM MgCl2, substrate (DUT), and inhibitor (KET), RLM or HLM (1 mg/mL), and 50 mM phosphate buffer. At 0 and 90 min after starting the metabolic reaction, a 50 μL aliquot of microsomal incubation mixture was sampled and immediately transferred into a clean 1.5 mL microcentrifuge tube containing 100 μL cold ACN with an internal standard (celecoxib at 400 ng/mL) to stop the metabolic reaction. After vortex mixing and centrifugation at 15,000× g for 10 min, a 100 μL aliquot of the supernatant was stored at −80 °C. The unbound fractions of DUT in rat plasma, RLM, human plasma, and HLM were measured using a rapid equilibrium dialysis (RED) device (Thermo Fisher Scientific, Inc., Waltham, MA, USA) as described in a previous study. […] The fraction unbound was calculated as the ratio of the drug concentrations in the “buffer” chamber to those in the “sample” chamber. The blood-to-plasma concentration ratio (RB) of DUT was determined as described previously. […] The concentrations of DUT in the plasma sample were determined by the validated HPLC analysis.

[2] = Blood-to-plasma concentration ratio (RB), blood distribution; type: in vitro ADME; conditions: rat, fresh rat blood, 37 °C
Experimental: as §1

[3] = Stability in rat plasma (QC samples); type: in vitro ADME; conditions: n = 5; for Stability (percent drug remaining), Autosampler: 10 °C for 24 h in the autosampler; for Stability (percent drug remaining), Bench-Top: room temperature for 3 h; for Stability (percent drug remaining), Freeze-Thaw: three freezing and thawing cycles; for Stability (percent drug remaining), Long-Term: −20 °C for 30 days
Experimental: The bioanalytical method proposed herein for the simultaneous determination of DUT and H-DUT was fully validated on the basis of the US FDA guideline. The selectivity of the method was evaluated by comparing chromatograms of the analytes (DUT, H-DUT, and internal standard) in blank rat plasma, blank rat plasma spiked with the analytes, and rat plasma sample obtained from the in vivo rat pharmacokinetic study. Further, the existence of potential interferences at the acquisition windows of the analytes was checked. The linearity of the method was evaluated by adding increasing amounts of DUT and H-DUT to the blank plasma. To construct calibration curves (n = 5), the peak area ratios of DUT or H-DUT to the internal standard (y-axis) were plotted against the nominal concentration ratios of DUT or H-DUT (10–1000 ng/mL) to the internal standard (400 ng/mL) (x-axis), and then, linear regression analysis was performed. The sensitivity was assessed by estimating the LLOQ (signal-to-noise [S/N] ratio > 5). The peaks of the analytes at the LLOQ should be discrete, identifiable, and reproducible with acceptable precision (<20%) and accuracy (within 80–120%). The extraction recovery, matrix effect, dilution integrity, and stability (under bench-top, freeze–thaw, post-preparative, and long-term conditions) in addition to the intra-assay (five different samples) and inter-assay (five different runs) precision and accuracy for each analyte were determined at the LLOQ and three different QC levels as described in the US FDA guidelines and in previous studies.

type-1 5AR = system: type-1 5AR; design: method as in PMID 16964191, PMID 16719800; conditions: previous in vitro studies; cited from earlier work
type-2 5AR = system: type-2 5AR; design: method as in PMID 16964191, PMID 16719800; conditions: previous in vitro studies; cited from earlier work

With C[C@]12C=CC(=O)N[C@@H]1CC[C@@H]1[C@@H]2CC[C@]2(C)[C@@H](C(=O)Nc3cc(C(F)(F)F)ccc3C(F)(F)F)CC[C@@H]12 [DUT, Dutasteride] the “fraction of unbound DUT, presence versus absence of KET” value ([1]; DUT and KET 5 μM, n = 5) was “no significant differences”, the fraction unbound at 5 μM ([1]; human, human liver microsomes, DUT 5 μM, RED device) was 0.091 and the blood plasma ratio at 60 min, 5 μM ([2]; DUT 5 μM alone) was 0.712 ± 0.026. For the same molecule, the blood plasma ratio at 60 min, 5 μM ([2]; DUT 5 μM in the presence of KET 5 μM) was 0.692 ± 0.036, the “Stability (percent drug remaining), Autosampler” value ([3]; HQC 750 ng/mL) was 102 ± 2% and the “Stability (percent drug remaining), Bench-Top” value ([3]; HQC 750 ng/mL) was 102 ± 0%. For the same molecule, the “Stability (percent drug remaining), Freeze-Thaw” value ([3]; HQC 750 ng/mL) was 100 ± 0%, the “Stability (percent drug remaining), Long-Term” value ([3]; HQC 750 ng/mL) was 105 ±1% and the “Stability (percent drug remaining), Autosampler” value ([3]; LLOQ 10 ng/mL) was 103 ± 8%. For the same molecule, the “Stability (percent drug remaining), Bench-Top” value ([3]; LLOQ 10 ng/mL) was 108 ± 1%, the “Stability (percent drug remaining), Freeze-Thaw” value ([3]; LLOQ 10 ng/mL) was 99.3 ± 4.7% and the “Stability (percent drug remaining), Long-Term” value ([3]; LLOQ 10 ng/mL) was 105 ± 5%. The “Stability (percent drug remaining), Autosampler” value ([3]; LQC 30 ng/mL) was 103 ± 1%, the “Stability (percent drug remaining), Bench-Top” value ([3]; LQC 30 ng/mL) was 105 ± 6% and the “Stability (percent drug remaining), Freeze-Thaw” value ([3]; LQC 30 ng/mL) was 99.7 ± 2.7%. The “Stability (percent drug remaining), Long-Term” value ([3]; LQC 30 ng/mL) was 102 ± 4%, the “Stability (percent drug remaining), Autosampler” value ([3]; MQC 150 ng/mL) was 104 ± 2% and the “Stability (percent drug remaining), Bench-Top” value ([3]; MQC 150 ng/mL) was 103 ± 1%. For the same molecule, the “Stability (percent drug remaining), Freeze-Thaw” value ([3]; MQC 150 ng/mL) was 106 ± 2%, the “Stability (percent drug remaining), Long-Term” value ([3]; MQC 150 ng/mL) was 100 ± 1% and the “more potent inhibition of type-1 5AR compared to finasteride” value (type-1 5AR) was 45 fold. The “more potent inhibition of type-2 5AR compared to finasteride” value (type-2 5AR) was 2.5 fold.
